Values quoted from earlier work as cited in patent US20070027116A1, “Therapeutic phosphonate derivatives” (priority 2003, published 2007).

Settings: after oral or intravenous administration; background statement

drug cleared by glucuronidation and excreted in the urine: over 90%
Structure (SMILES): COc1c(C)c2c(c(O)c1C/C=C(\C)CCC(=O)OCCN1CCOCC1)C(=O)OC2 [Mycophenolate mofetil]
